Source: paper PMC5458547, “Discovery of first-in-class reversible dual small molecule inhibitors against G9a and DNMTs in hematological malignancies” (Nature Communications, 2017)
Like-named read-outs stand apart in the source and are kept apart here.

Experiments:
hERG potassium channels = target: T1, hERG potassium channels (Homo sapiens, UniProt Q12809); assay: hERG blockade assay (Predictor fluorescence polarization); conditions: read-out: hERG binding IC50
T1 construct: purchased Life technologies PV5365
T1 sequence (Q12809 whole entry): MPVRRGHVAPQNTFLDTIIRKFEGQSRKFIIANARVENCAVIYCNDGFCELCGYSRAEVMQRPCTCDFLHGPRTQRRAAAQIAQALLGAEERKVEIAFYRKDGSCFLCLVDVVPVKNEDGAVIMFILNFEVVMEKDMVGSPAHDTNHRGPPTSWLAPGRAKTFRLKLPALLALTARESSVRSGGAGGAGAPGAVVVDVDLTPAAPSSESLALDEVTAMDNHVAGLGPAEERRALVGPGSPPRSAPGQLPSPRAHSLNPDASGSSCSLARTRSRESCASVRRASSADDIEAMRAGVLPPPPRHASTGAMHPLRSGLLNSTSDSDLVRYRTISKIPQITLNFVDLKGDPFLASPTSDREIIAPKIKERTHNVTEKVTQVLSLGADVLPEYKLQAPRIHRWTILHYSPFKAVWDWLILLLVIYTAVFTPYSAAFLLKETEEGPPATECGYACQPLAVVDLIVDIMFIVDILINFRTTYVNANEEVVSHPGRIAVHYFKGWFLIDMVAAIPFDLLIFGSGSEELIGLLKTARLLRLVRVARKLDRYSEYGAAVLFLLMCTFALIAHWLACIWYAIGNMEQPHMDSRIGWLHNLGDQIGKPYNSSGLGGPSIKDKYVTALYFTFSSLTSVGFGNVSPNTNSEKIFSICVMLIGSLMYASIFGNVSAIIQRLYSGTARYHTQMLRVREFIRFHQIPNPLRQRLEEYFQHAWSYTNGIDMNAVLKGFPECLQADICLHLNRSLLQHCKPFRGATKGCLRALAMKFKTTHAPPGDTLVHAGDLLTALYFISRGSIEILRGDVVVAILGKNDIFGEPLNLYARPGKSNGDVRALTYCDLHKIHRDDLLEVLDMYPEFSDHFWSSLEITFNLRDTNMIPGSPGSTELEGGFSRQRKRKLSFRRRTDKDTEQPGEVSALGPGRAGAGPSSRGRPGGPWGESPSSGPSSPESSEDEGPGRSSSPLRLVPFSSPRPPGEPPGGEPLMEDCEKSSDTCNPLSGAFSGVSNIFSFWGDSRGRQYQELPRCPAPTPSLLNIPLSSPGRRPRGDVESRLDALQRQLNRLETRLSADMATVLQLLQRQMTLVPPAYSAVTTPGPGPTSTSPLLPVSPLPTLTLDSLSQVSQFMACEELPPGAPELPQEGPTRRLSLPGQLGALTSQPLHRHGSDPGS

OCI-Ly10 = assay: Cell proliferation assay (MTS); format: cell-based, human; conditions: ABC-DLBCL, 48 h, read-out: GI50
BRD1 = target: T2, BRD1 (Homo sapiens, UniProt O95696); assay: Epigenetics selectivity panel (BPS Bioscience); format: binding
T2 construct: purchased DiscoverX KINOMEscan (kinases); BPS Bioscience (epigenetic targets)
T2 sequence (O95696 whole entry): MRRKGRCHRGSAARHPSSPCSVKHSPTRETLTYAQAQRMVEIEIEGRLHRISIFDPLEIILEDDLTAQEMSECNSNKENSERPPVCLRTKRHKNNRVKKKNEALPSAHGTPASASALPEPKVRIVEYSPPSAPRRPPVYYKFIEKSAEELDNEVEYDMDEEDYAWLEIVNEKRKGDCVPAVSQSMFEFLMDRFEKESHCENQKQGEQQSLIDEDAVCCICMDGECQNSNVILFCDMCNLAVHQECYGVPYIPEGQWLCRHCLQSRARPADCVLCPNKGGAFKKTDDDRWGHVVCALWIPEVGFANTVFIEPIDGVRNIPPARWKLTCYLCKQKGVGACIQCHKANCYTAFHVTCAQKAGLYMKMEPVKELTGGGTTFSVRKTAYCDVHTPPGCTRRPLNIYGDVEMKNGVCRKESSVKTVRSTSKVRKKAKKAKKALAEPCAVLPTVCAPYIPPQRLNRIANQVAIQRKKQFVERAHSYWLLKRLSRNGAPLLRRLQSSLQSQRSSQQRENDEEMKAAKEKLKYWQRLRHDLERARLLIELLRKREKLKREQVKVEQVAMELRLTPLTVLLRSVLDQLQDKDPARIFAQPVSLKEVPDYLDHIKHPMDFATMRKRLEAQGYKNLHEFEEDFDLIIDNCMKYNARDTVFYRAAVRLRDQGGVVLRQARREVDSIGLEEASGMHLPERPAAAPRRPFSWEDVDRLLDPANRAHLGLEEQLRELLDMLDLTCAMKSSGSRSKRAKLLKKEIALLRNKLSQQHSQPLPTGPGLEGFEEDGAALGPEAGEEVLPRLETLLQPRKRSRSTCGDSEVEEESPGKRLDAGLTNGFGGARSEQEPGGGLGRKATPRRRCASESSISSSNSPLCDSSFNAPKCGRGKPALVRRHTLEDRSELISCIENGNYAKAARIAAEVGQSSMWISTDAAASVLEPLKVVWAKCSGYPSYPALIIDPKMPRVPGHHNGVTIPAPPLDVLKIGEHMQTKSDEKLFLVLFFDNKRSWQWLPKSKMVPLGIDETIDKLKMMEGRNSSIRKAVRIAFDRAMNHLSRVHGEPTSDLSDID

ACVR1B = target: T3, ACVR1B (Homo sapiens, UniProt P36896); assay: KINOMEscan kinase profiling; format: binding; conditions: read-out: Percent Control
T3 construct: purchased DiscoverX KINOMEscan (kinases); BPS Bioscience (epigenetic targets)
How it was run: (§1)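 Profiled on the KINOMEscan competition-binding platform with compound at 10 µM. Values are percent of control, calculated as (test − positive control)/(negative control − positive control) × 100, where DMSO defines 100% and a control competitive compound defines 0%.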

DYRK1B = target: T4, DYRK1B (Homo sapiens, UniProt Q9Y463); assay: KINOMEscan kinase profiling; format: binding; conditions: read-out: Percent Control
T4 construct: purchased DiscoverX KINOMEscan (kinases); BPS Bioscience (epigenetic targets)
How it was run: as §1

FGFR2 = target: T5, FGFR2 (Homo sapiens, UniProt P21802); assay: KINOMEscan kinase profiling; format: binding; conditions: read-out: Percent Control
T5 construct: purchased DiscoverX KINOMEscan (kinases); BPS Bioscience (epigenetic targets)
T5 sequence (P21802 22-821): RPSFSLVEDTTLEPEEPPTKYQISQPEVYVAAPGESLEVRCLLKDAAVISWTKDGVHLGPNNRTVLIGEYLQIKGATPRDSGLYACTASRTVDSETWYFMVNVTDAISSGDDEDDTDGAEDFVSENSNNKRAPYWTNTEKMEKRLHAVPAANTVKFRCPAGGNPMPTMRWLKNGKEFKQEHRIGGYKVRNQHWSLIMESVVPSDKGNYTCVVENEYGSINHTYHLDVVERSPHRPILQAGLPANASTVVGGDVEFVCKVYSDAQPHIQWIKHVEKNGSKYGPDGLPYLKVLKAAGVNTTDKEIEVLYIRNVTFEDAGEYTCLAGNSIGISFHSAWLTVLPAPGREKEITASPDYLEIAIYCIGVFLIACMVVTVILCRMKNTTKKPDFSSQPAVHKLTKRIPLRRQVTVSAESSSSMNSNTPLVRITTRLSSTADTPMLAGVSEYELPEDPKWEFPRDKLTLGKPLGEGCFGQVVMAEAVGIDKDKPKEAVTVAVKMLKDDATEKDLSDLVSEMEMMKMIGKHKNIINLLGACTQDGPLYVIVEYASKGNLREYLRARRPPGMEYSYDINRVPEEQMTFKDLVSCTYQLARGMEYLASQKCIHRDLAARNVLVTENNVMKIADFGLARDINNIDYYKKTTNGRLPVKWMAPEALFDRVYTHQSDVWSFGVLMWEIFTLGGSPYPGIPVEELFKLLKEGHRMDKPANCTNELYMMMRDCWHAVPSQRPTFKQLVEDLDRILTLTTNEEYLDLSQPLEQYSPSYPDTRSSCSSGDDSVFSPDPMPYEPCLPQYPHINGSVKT
How it was run: as §1

JNK2 = target: T6, JNK2 (Homo sapiens, UniProt P45984); assay: KINOMEscan kinase profiling; format: binding; conditions: read-out: Percent Control
T6 construct: purchased DiscoverX KINOMEscan (kinases); BPS Bioscience (epigenetic targets)
T6 sequence (P45984 whole entry): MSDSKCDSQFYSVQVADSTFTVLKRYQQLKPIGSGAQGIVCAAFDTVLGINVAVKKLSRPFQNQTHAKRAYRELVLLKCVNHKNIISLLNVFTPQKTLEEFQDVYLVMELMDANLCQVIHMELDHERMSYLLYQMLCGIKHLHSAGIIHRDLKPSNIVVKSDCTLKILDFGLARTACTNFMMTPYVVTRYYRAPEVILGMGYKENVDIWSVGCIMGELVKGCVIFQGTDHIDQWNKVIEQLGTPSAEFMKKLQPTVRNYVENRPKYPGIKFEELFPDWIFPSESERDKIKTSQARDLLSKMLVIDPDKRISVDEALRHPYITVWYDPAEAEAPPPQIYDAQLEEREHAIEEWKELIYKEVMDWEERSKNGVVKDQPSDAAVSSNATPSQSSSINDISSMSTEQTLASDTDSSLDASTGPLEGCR
How it was run: as §1

VEGFR2 = target: T7, VEGFR2 (Homo sapiens, UniProt P35968); assay: KINOMEscan kinase profiling; format: binding; conditions: read-out: Percent Control
T7 construct: purchased DiscoverX KINOMEscan (kinases); BPS Bioscience (epigenetic targets)
T7 sequence (P35968 20-1356): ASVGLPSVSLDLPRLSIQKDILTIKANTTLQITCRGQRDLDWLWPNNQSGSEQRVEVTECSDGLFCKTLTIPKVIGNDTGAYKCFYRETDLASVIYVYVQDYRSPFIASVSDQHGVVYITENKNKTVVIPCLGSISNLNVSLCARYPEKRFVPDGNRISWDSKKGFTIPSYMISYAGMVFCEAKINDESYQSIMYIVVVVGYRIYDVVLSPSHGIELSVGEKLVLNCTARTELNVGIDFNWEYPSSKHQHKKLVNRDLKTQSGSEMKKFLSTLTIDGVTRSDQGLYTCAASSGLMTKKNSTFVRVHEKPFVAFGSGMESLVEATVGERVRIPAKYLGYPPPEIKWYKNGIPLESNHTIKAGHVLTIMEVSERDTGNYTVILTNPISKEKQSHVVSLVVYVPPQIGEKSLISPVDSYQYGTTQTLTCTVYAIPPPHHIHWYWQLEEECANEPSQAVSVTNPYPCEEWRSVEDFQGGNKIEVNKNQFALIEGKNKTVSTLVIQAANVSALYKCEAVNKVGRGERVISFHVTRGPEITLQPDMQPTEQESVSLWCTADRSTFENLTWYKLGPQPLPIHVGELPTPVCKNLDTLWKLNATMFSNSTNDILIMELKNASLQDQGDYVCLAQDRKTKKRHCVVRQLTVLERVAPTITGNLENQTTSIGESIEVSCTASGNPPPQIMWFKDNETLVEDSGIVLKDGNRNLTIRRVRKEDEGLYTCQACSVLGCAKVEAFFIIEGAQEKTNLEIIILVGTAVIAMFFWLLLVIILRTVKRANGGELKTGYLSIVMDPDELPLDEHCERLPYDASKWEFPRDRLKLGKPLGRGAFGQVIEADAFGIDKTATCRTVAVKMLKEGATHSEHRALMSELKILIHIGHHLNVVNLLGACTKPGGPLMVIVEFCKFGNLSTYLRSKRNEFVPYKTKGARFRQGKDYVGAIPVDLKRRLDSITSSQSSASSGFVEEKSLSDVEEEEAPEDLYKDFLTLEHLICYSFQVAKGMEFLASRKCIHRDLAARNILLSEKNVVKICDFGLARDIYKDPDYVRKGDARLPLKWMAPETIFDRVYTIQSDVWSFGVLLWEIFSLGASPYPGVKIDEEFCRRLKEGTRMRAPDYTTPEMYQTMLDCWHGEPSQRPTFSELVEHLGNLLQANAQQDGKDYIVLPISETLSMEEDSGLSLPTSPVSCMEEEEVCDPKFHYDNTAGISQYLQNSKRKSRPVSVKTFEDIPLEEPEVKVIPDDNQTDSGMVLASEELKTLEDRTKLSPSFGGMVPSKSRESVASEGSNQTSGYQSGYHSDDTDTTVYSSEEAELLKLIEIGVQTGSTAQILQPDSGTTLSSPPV
How it was run: as §1

CDK11 = target: T8, CDK11 (Homo sapiens, UniProt Q9BWU1); assay: KINOMEscan kinase profiling; format: binding; conditions: read-out: Percent Control
T8 construct: purchased DiscoverX KINOMEscan (kinases); BPS Bioscience (epigenetic targets)
Protocol: precipitate the proteins. The mixture was then agitated for 5 min and centrifuged at 13200 rpm for 10 min at 4 °C. A 5 µL aliquot of the resulting supernatant was injected onto the LC-MS/MS system for analysis.
Frozen plasma samples were thawed at room temperature, vortexed thoroughly and subjected to the above described extraction procedure.
The pharmacokinetic parameters were obtained by fitting the blood concentration-time data to a non-compartmental model with the WinNonlin software (Pharsight, Mountain View, CA). […]
concentration-time profile for a dosing regimen of 2.5 mg/kg administered intravenously every 24 h for 3 weeks was simulated with Winnonlin.
Kinase Selectivity Profiling
(out of which 90 are non-mutant kinases) was performed at DiscoverRx (http://www.discoverx.com/home) using the KINOMEscan™ screening platform at a test concentration of 10 µM. Results for primary screen […]
positive control signal) / (negative control signal – positive control signal) *100, where negative control corresponds to DMSO treatment (100%) and positive control to the signal obtained with a control competitive compound (0%). […]
using the Hill equation. […]
MicroScale Thermophoresis (MST) was performed to quantify biomolecular interactions between CM-579 and DNMT1 (full length). […]
Cell proliferation was analyzed using the CellTiter 96 Aqueous One Solution Cell Proliferation Assay (Promega, Madison, W). […]

LAL-CUN-13 = assay: Cell proliferation assay (MTS); format: cell-based; conditions: Homo sapiens; ALL, 48 h
MD-901 = assay: Cell proliferation assay (MTS); format: cell-based; conditions: Homo sapiens; ABC-DLBCL, 48 h
RIVA = assay: Cell proliferation assay (MTS); format: cell-based; conditions: Homo sapiens; ABC-DLBCL, 48 h
SU-DHL-8 = assay: Cell proliferation assay (MTS); format: cell-based; conditions: Homo sapiens, ABC-DLBCL, 48 h
DB = assay: Cell proliferation assay (MTS); format: cell-based; conditions: Homo sapiens, GC-DLBCL, 48 h
HT = assay: Cell proliferation assay (MTS); format: cell-based; conditions: Homo sapiens, GC-DLBCL, 48 h
OCI-Ly7 = assay: Cell proliferation assay (MTS); format: cell-based; conditions: Homo sapiens, GC-DLBCL, 48 h
PFEIFFER = assay: Cell proliferation assay (MTS); format: cell-based; conditions: Homo sapiens, GC-DLBCL, 48 h
SU-DHL-4 = assay: Cell proliferation assay (MTS); format: cell-based; conditions: Homo sapiens, GC-DLBCL, 48 h
SU-DHL-7 = assay: Cell proliferation assay (MTS); format: cell-based; conditions: Homo sapiens; GC-DLBCL, 48 h
5637 = assay: Cell proliferation assay (MTS); format: cell-based; conditions: Homo sapiens; Bladder
J82 = assay: Cell proliferation assay (MTS); format: cell-based; conditions: Homo sapiens, Bladder
RT-4 = assay: Cell proliferation assay (MTS); format: cell-based; conditions: Homo sapiens, Bladder
UM-UC-1 = assay: Cell proliferation assay (MTS); format: cell-based; conditions: Homo sapiens; Bladder
BxPC3 = assay: Cell proliferation assay (MTS); format: cell-based; conditions: Homo sapiens, BXPC-3; Pancreas
NP18 = assay: Cell proliferation assay (MTS); format: cell-based; conditions: Homo sapiens; Pancreas
Mia Paca-2 = assay: Cell proliferation assay (MTS); format: cell-based; conditions: Homo sapiens, Pancreas
H209 = assay: Cell proliferation assay (MTS); format: cell-based; conditions: Homo sapiens, NCI-H209; SCLC

Q: Which results are given for `COc1cc2c(NCC3CCN(C)CC3)cc(-c3ccc(C)o3)nc2cc1OCCCN1CCCC1` [CM-579, 6-methoxy-2-(5-methyl-2-furyl)-N-[(1-methyl-4-piperidyl)methyl]-7-(3-pyrrolidin-1-ylpropoxy)quinolin-4-amine]?
A: IC50 (hERG potassium channels): > 100 µM; GI50 (OCI-Ly10): < 0.031 µM; GI50 (OCI-Ly10; Homo sapiens, OCI-Ly10, 48 h): 0.031 µM

Q: For `COc1cc2c(NC3CCN(C)CC3)cc(-c3ccc(C)o3)nc2cc1OCCCN1CCCC1` [CM-272, 6-methoxy-2-(5-methyl-2-furyl)-N-(1-methyl-4-piperidyl)-7-(3-pyrrolidin-1-ylpropoxy)quinolin-4-amine], which inhibition at 10 µM (BRD1) is on record?
A: The inhibition at 10 µM was 0%.

Q: What about the remaining binding at 10 µM (ACVR1B) of the same compound?
A: Its remaining binding at 10 µM is 81%.

Q: And the remaining binding at 10 µM (DYRK1B)?
A: The remaining binding at 10 µM was 100%.

Q: And the remaining binding at 10 µM (FGFR2)?
A: Its remaining binding at 10 µM is 100%.

Q: And the remaining binding at 10 µM (JNK2)?
A: Its remaining binding at 10 µM is 34%.

Q: And the remaining binding at 10 µM (VEGFR2)?
A: The remaining binding at 10 µM was 23%.

Q: And the remaining binding at 10 µM (CDK11)?
A: The remaining binding at 10 µM was 88%.

Q: What about the GI50 (LAL-CUN-13) of the same compound?
A: Its GI50 is 1.4 µM.

Q: And the GI50 (MD-901)?
A: The GI50 was 1.46 µM.

Q: What about the GI50 (RIVA) of the same compound?
A: Its GI50 is 1.57 µM.

Q: And the GI50 (SU-DHL-8)?
A: Its GI50 is 1.95 µM.

Q: What about the GI50 (DB) of the same compound?
A: Its GI50 is 1.31 µM.

Q: And the GI50 (HT)?
A: The GI50 was 1.17 µM.

Q: And the GI50 (OCI-Ly7)?
A: The GI50 was 0.534 µM.

Q: And the GI50 (PFEIFFER)?
A: The GI50 was 1.22 µM.

Q: And the GI50 (SU-DHL-4)?
A: Its GI50 is 1.16 µM.

Q: What about the GI50 (SU-DHL-7) of the same compound?
A: Its GI50 is 0.636 µM.

Q: And the GI50 5637?
A: Its GI50 is 0.717 µM.

Q: What about the GI50 (J82) of the same compound?
A: The GI50 was greater than 10 µM.

Q: What about the GI50 (RT-4) of the same compound?
A: The GI50 was 0.817 µM.

Q: And the GI50 (UM-UC-1)?
A: The GI50 was 0.842 µM.

Q: And the GI50 (BxPC3)?
A: Its GI50 is 0.319 µM.

Q: And the GI50 (NP18)?
A: Its GI50 is 0.577 µM.

Q: And the GI50 (Mia Paca-2)?
A: The GI50 was 0.206 µM.

Q: And the GI50 (H209)?
A: Its GI50 is 1.15 µM.
